Experimental data taken from patent US10821100B2, “Triazolone compounds as mPGES-1 inhibitors” (Glenmark Pharmaceuticals S.A., priority 2012, dated 2020).
pIC50: −log10 of the molar value.

Target: T1, Recombinant human mPGES-1 (Homo sapiens, UniProt O14684)
T1 construct: made in house; host or cells: CHO cells (crude microsomal fractions)
T1 sequence (O14684 1-152): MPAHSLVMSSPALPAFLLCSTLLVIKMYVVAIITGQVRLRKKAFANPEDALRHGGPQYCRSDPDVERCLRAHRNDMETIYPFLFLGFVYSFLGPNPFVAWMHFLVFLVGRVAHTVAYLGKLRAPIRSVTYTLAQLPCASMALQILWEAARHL
Test: In-vitro screening of mPGES-1 inhibitors (inhibition of PGE2 formation from PGH2, HTRF detection)
Format: biochemical
Conditions: mPGES-1 enzyme; for inhibition at 1 µM: 1 μM test compound, read-out: Percentage inhibition at 1 μM; for inhibition at 1 µM / inhibition at 10 µM / inhibition at 3 µM: crude microsomal fractions; for inhibition at 10 µM: 10 μM test compound, read-out: Percentage inhibition at 10 μM; for pIC50: class symbols; for inhibition at 3 µM: 3 μM test compound, read-out: Percentage inhibition at 3 μM
Source text: In-Vitro Protocol for Screening of mPGES-1 Inhibitors: mPGES-1 (Microsomal prostaglandin E synthase-1) is a microsomal enzyme that converts endoperoxide substrate PGH2 (prostaglandin H2) to product PGE2 (prostaglandin E2) by isomerization in the presence of reduced glutathione (GSH). mPGES-1 inhibitors were screened by assessing their ability to inhibit formation of PGE2 from PGH2 in the presence of mPGES-1 using an anti-PGE2 antibody based detection method. Recombinant human mPGES-1 was generated in-house by expression in CHO cells (Ouellet M et al. (2002), Protein Expression and Purification 26: 489-495). The assay was set up using crude microsomal fractions at a protein concentration of 40-60 μg/mL. Test compounds were prepared in 100% dimethyl sulfoxide (DMSO) to obtain 20 mM stock solution and then diluted using assay buffer comprising 0.1 M Potassium phosphate buffer with 2 mM EDTA. The final concentration of DMSO in the reaction was 0.5% (v/v). Negative controls were comprised of all assay reagents except the enzyme. Positive controls were comprised of the enzyme reaction in the absence of any inhibitor. Test compounds were incubated for 10 minutes in assay buffer containing 2.5 mM GSH and mPGES-1 enzyme followed by addition of PGH2 at a concentration of 15 μM for 1 minute. The reaction was stopped by addition of Stannous chloride (11 mg/ml) and PGE2 levels were measured ([…] et al. (2005), Journal of Biomolecular Screening 10(6) 599-605; Goedken R E et al. (2008), Journal of Biomolecular Screening 13 (7): 619-625) by HTRF kit (CisBio)). Inhibition of mPGES-1 enzyme activity was measured using the percent of reaction occurring in the positive control. Concentration response curves were plotted using percent inhibition of maximum enzyme reaction. The IC50 value was calculated from the concentration response curve by nonlinear regression analysis using GraphPad PRISM software.

Row | SMILES | inhibition at 1 µM | inhibition at 10 µM | pIC50 | inhibition at 3 µM
1 | COc1cc(-n2nc(-c3c(Cl)cccc3Cl)[nH]c2=O)ccc1-c1nc(C(C)C)no1 [Example-50, 3-(2,6-Dichlorophenyl)-1-(4-(3-isopropyl-1,2,4-oxadiazol-5-yl)-3-methoxyphenyl)-1H-1,2,4-triazol-5(4H)-one] | 95.3% | 99.8% | 7.00 to 7.30 | –
2 | COc1cc(-n2nc(-c3c(C)cccc3Cl)[nH]c2=O)ccc1C(=O)Nc1cccc(C(F)F)c1 [Example-54, 4-(3-(2-Chloro-6-methylphenyl)-5-oxo-4,5-dihydro-1H-1,2,4-triazol-1-yl)-N-(3-(difluoromethyl)phenyl)-2-methoxybenzamide] | 89.4% | 97.5% | 7.00 to 7.30 | –
3 | COc1cc(-n2nc(-c3c(C)cccc3Cl)[nH]c2=O)ccc1-c1nc(-c2ccc(Cl)cc2)no1 [Example-55, 3-(2-Chloro-6-methylphenyl)-1-(4-(3-(4-chlorophenyl)-1,2,4-oxadiazol-5-yl)-3-methoxyphenyl)-1H-1,2,4-triazol-5(4H)-one] | 81% | – | > 7.30 | 91.8%
4 | COc1cc(-n2nc(-c3c(C)cccc3Cl)[nH]c2=O)ccc1C(=O)Nc1cccc(C(F)(F)F)c1 [Example-56, 4-(3-(2-Chloro-6-methylphenyl)-5-oxo-4,5-dihydro-1H-1,2,4-triazol-1-yl)-2-methoxy-N-(3-(trifluoromethyl)phenyl)benzamide] | 98.1% | 98.5% | > 7.30 | –
5 | COc1cc(-n2nc(-c3cc(CNC(=O)C4CC4)ccc3Cl)[nH]c2=O)ccc1-c1nc(-c2ccc(Cl)cc2)no1 [Example-57, N-(4-Chloro-3-(1-(4-(3-(4-chlorophenyl)-1,2,4-oxadiazol-5-yl)-3-methoxyphenyl)-5-oxo-4,5-dihydro-1H-1,2,4-triazol-3-yl)benzyl)cyclopropanecarboxamide] | 98.7% | – | > 7.30 | 98.5%
6 | COc1cc(-n2nc(-c3c(F)cccc3Cl)[nH]c2=O)ccc1-c1nc2cc(C)c(C)cc2n1C [Example-58, 3-(2-Chloro-6-fluorophenyl)-1-(3-methoxy-4-(1,5,6-trimethyl-1H-benzo[d]imidazol-2-yl)phenyl)-1H-1,2,4-triazol-5(4H)-one] | 95.2% | 97.3% | 7.00 to 7.30 | –
7 | COc1cc(-n2nc(-c3c(F)cccc3Cl)[nH]c2=O)ccc1C#Cc1cc(Cl)ccc1Cl [Example-59, 3-(2-Chloro-6-fluorophenyl)-1-(4-((2,5-dichlorophenyl)ethynyl)-3-methoxyphenyl)-1H-1,2,4-triazol-5(4H)-one] | 93.9% | 96.8% | > 7.30 | –
8 | COc1cc(-n2nc(-c3c(F)cccc3Cl)[nH]c2=O)ccc1C#Cc1cccc(Cl)c1F [Example-60, 1-(4-((3-Chloro-2-fluorophenyl)ethynyl)-3-methoxyphenyl)-3-(2-chloro-6-fluorophenyl)-1H-1,2,4-triazol-5(4H)-one] | 95.4% | 93.1% | > 7.30 | –
9 | COc1cc(-n2nc(-c3c(F)cccc3Cl)[nH]c2=O)ccc1C#Cc1ccc(C(F)(F)F)cc1Cl [Example-61, 1-(4-((2-Chloro-4-(trifluoromethyl)phenyl)ethynyl)-3-methoxyphenyl)-3-(2-chloro-6-fluorophenyl)-1H-1,2,4-triazol-5(4H)-one] | 92.4% | 96.8% | > 7.30 | –
10 | COc1cc(-n2nc(-c3c(Cl)cccc3C#N)[nH]c2=O)ccc1C(=O)Nc1cccc(C(F)(F)F)c1 [Example-62, 4-(3-(2-Chloro-6-cyanophenyl)-5-oxo-4,5-dihydro-1H-1,2,4-triazol-1-yl)-2-methoxy-N-(3-(trifluoromethyl)phenyl)benzamide] | 97.8% | 98.3% | > 7.30 | –
11 | COc1cc(-n2nc(-c3cc(CNC(=O)C4CC4)ccc3Cl)[nH]c2=O)ccc1C(=O)Nc1ccc(F)c(C(F)F)c1 [Example-63, 4-(3-(2-Chloro-5-(cyclopropanecarboxamidomethyl)phenyl)-5-oxo-4,5-dihydro-1H-1,2,4-triazol-1-yl)-N-(3-(difluoromethyl)-4-fluorophenyl)-2-methoxybenzamide] | 92.4% | 94.8% | > 7.30 | –
12 | COc1cc(-n2nc(-c3c(Cl)cccc3Cl)[nH]c2=O)ccc1C(=O)Nc1cc(CNC(=O)C2CC2)ccc1Cl [Example-64, N-(2-Chloro-5-(cyclopropanecarboxamidomethyl)phenyl)-4-(3-(2,6-dichlorophenyl)-5-oxo-4,5-dihydro-1H-1,2,4-triazol-1-yl)-2-methoxybenzamide] | 28.9% | 63.8% | – | –
13 | COc1cc(-n2nc(-c3c(Cl)cccc3Cl)[nH]c2=O)ccc1-c1nc2cc(C(F)(F)F)ccc2[nH]1 [Example-65, 3-(2,6-Dichlorophenyl)-1-(3-methoxy-4-(5-(trifluoromethyl)-1H-benzo[d]imidazol-2-yl)phenyl)-1H-1,2,4-triazol-5(4H)-one] | 75.5% | 94.5% | – | –
14 | COc1cc(-n2nc(-c3cc(CNC(=O)C4CC4)ccc3Cl)[nH]c2=O)ccc1NC(=O)C1CC1 [Example-66, N-(4-Chloro-3-(1-(4-(cyclopropanecarboxamido)-3-methoxyphenyl)-5-oxo-4,5-dihydro-1H-1,2,4-triazol-3-yl)benzyl)cyclopropanecarboxamide] | 87.8% | 98.8% | < 7.00 | –
15 | COc1cc(-n2nc(-c3c(Cl)cccc3Cl)[nH]c2=O)ccc1C(=O)Nc1ccc(S(C)(=O)=O)cc1 [Example-67, 4-(3-(2,6-Dichlorophenyl)-5-oxo-4,5-dihydro-1H-1,2,4-triazol-1-yl)-2-methoxy-N-(4-(methylsulfonyl)phenyl)benzamide] | 72.7% | 96.3% | – | –

Now from value to compound:

Row | inhibition at 1 µM | inhibition at 10 µM | pIC50 | inhibition at 3 µM | SMILES
16 | 89.5% | 96.5% | > 7.30 | – | COc1cc(-n2nc(-c3c(F)cccc3Cl)[nH]c2=O)ccc1-c1nc(-c2cc(F)cc(C(F)(F)F)c2)no1 [Example-47, 3-(2-Chloro-6-fluorophenyl)-1-(4-(3-(3-fluoro-5-(trifluoromethyl)phenyl)-1,2,4-oxadiazol-5-yl)-3-methoxyphenyl)-1H-1,2,4-triazol-5(4H)-one]
17 | 98.3% | 100% | > 7.30 | – | COc1cc(-n2nc(-c3c(F)cccc3Cl)[nH]c2=O)ccc1C(=O)Nc1nnc(C(F)(F)F)s1 [Example-48, 4-(3-(2-Chloro-6-fluorophenyl)-5-oxo-4,5-dihydro-1H-1,2,4-triazol-1-yl)-2-methoxy-N-(5-(trifluoromethyl)-1,3,4-thiadiazol-2-yl)benzamide]
18 | 89.2% | 96.3% | > 7.30 | – | COc1cc(-n2nc(-c3c(Cl)cccc3Cl)[nH]c2=O)ccc1-c1nc(-c2ccc(Cl)cc2)no1 [Example-49, 1-(4-(3-(4-Chlorophenyl)-1,2,4-oxadiazol-5-yl)-3-methoxyphenyl)-3-(2,6-dichlorophenyl)-1H-1,2,4-triazol-5(4H)-one]
19 | 88.3% | 86% | > 7.30 | – | O=c1[nH]c(-c2c(F)cccc2Cl)nn1-c1ccc(-c2nc(-c3ccc(Cl)cc3)no2)cc1 [Example-51, 3-(2-Chloro-6-fluorophenyl)-1-(4-(3-(4-chlorophenyl)-1,2,4-oxadiazol-5-yl)phenyl)-1H-1,2,4-triazol-5(4H)-one]
20 | 96.4% | 98.3% | > 7.30 | – | COc1cc(-n2nc(-c3cc(CNC(=O)C4CC4)ccc3Cl)[nH]c2=O)ccc1C(=O)Nc1cccc(C(F)(F)F)c1 [Example-52, 4-(3-(2-Chloro-5-(cyclopropanecarboxamidomethyl)phenyl)-5-oxo-4,5-dihydro-1H-1,2,4-triazol-1-yl)-2-methoxy-N-(3-(trifluoromethyl)phenyl)benzamide]
21 | 82.7% | 97.9% | > 7.30 | – | COc1cc(-n2nc(-c3c(C)cccc3Cl)[nH]c2=O)ccc1C(=O)Nc1ccc(F)c(C(F)F)c1 [Example-53, 4-(3-(2-Chloro-6-methylphenyl)-5-oxo-4,5-dihydro-1H-1,2,4-triazol-1-yl)-N-(3-(difluoromethyl)-4-fluorophenyl)-2-methoxybenzamide]
